Activity calls are given as the source filed them. The rule behind the calls is not given here.
Target: CCHF virus vOTU protease domain (L polyprotein)
Assay: Crimean Congo hemorrhagic fever virus vOTU protease, Pep AMC substrate, counterscreen, confirmatory (AID 720577)
Settings: purified vOTU, fluorescence

O=C(NC(=S)Nc1ccccc1N1CCCC1)c1cccs1
IC50: > 115 µM (inactive)

Cc1ccc(NC2=C(N3CCOCC3)C(=O)c3ccccc3C2=O)cc1
IC50: inactive

O=C(NC(=S)Nc1ccccc1N1CCCC1)c1ccc(F)cc1
IC50: > 115 µM (inactive)

C=CCN1C=CC(=C/C=C(/C#N)C(=O)OCC)C=C1
IC50: inactive

COc1ccccc1N=Nc1c(O)[nH]c(=S)[nH]c1=O
IC50: inactive

O=C(COC(=O)c1ccc([N+](=O)[O-])s1)Nc1ccc(F)cc1
IC50: inactive

O=C(NC(=S)Nc1ccccc1N1CCCC1)c1ccccc1Br
IC50: > 115 µM (inactive)

O=C1C=C(NCc2ccccc2)c2ccccc2C1=O
IC50: inactive

O=C(O)CSc1cc(NS(=O)(=O)c2cccc([N+](=O)[O-])c2)c2ccccc2c1O
IC50: 7.61 µM

Cc1ccccc1NC1=C/C(=N\S(=O)(=O)c2cccs2)c2ccccc2C1=O
IC50: 1.04 µM

COC1=CC(=O)c2c(ccc3ncnc(N)c23)C1=O
IC50: 0.853 µM

CCOC(=O)N1CCN(C2=C(NS(=O)(=O)c3ccc(C)cc3)C(=O)c3ccccc3C2=O)CC1
IC50: inactive

O=C(O)CCCNc1cc(N2CCN(C(=O)c3ccco3)CC2)c2noc3c2c1C(=O)c1ccccc1-3
IC50: inactive

COc1ccc2noc3c2c1C(=O)c1ccccc1-3
IC50: 6.28 µM

C[n+]1cccc2cccc([O-])c21
IC50: inactive

C[n+]1c2ccccc2nc2ccc(NCCO)cc21
IC50: inactive

COC(CNC(=O)c1ccc2c3c(onc13)-c1ccccc1C2=O)OC
IC50: inactive

O=C1NC(c2ccc(-c3ccccc3[N+](=O)[O-])o2)C(C(=O)c2ccc(Cl)cc2)C(O)(C(F)(F)F)N1 (centres undefined)
IC50: inactive

CCOC(=O)c1cc2c(=Cc3ccc(N(C)C)cc3)c3ccccc3n2[n+]1C
IC50: 5.69 µM

Cc1cc(NC2=CC(=O)C(=O)c3ccccc32)no1
IC50: inactive

O=C(O)CSc1cc(NS(=O)(=O)c2ccc(Cl)cc2)c2ccccc2c1O
IC50: inactive

NC1=C(Br)C(=O)c2ncccc2C1=O
IC50: 1.1 µM

CC1OC(CC(=O)O)CC2=C1C(=O)c1c(O)cccc1C2=O (centres undefined)
IC50: inactive

O=C1Cc2ccccc2C(=O)N1
IC50: 0.597 µM

Nc1scc2c(C(=O)N/N=C/c3ccc(Cl)cc3)nn(-c3ccccc3)c(=O)c12
IC50: inactive

NC1=C(Br)C(=O)c2ccccc2C1=O
IC50: 6.65 µM

CCOC(=O)/C=C(\C)Sc1cc(O)c2ccccc2c1O
IC50: 4.61 µM

O=C1C(N2CCOCC2)=C(n2nnc3ccccc32)C(=O)c2ccccc21
IC50: 6.3 µM

CNc1ccc2nc3ccccc3[n+](C)c2c1
IC50: inactive

CCOc1ccc2noc3c2c1C(=O)c1ccccc1-3
IC50: inactive

CCc1ccc(S(=O)(=O)Nc2cc(SCC(=O)O)c(O)c3ccccc23)cc1
IC50: inactive

CN=c1sc2c(n1C)C(=O)c1ccccc1C2=O
IC50: 5.75 µM

O=C1C=C(N2CC2)c2ccccc2C1=O
IC50: 8.1 µM

CCCCCCCCN1C(=O)[C@@H](CC(=O)NCCCOCCCC)C[C@@]2(C(=O)OC)C1=C[C@H](C(C)C)O[C@@H]2C1CC1
IC50: inactive

O=C(O)CSc1cc(NS(=O)(=O)c2ccc(Br)cc2)c2ccccc2c1O
IC50: inactive

CCOC(=O)C1CCN(C(=O)c2c(C)oc3c2C(=O)c2ccccc2C3=O)CC1
IC50: inactive

COc1ccc(/C=N/NC(=O)c2nn(-c3ccc(Cl)cc3)c(=O)c3c(N)scc23)cc1
IC50: inactive

COc1ccc(Cc2nccc3cc(OC)c(OC)cc23)cc1OC
IC50: inactive

O=C(O)c1cccc(NC2=C(n3nnc4ccccc43)C(=O)c3ccccc3C2=O)c1
IC50: inactive

COc1ccc(S(=O)(=O)/N=C2\C=C(Nc3ccc(O)cc3)C(=O)c3ccccc32)cc1
IC50: 1.33 µM

Cc1ccc(N2C(=O)[C@@H]3[C@H](C2=O)C2c4ccccc4C=CN2[C@@H]3C(=O)c2ccco2)cc1 (some centres undefined)
IC50: 5.2 µM

NC(=S)N=Nc1c(O)cc(O)c2[nH]c(=O)ccc12
IC50: inactive

CCOC(=O)c1c2c(n(Cc3ccccc3)c1C)C(=O)C(=O)c1ccccc1-2
IC50: 1.49 µM

CCCCCCCCCCCCCCCCn1cc[n+](C)c1
IC50: 7.06 µM

Cc1cnc(C=NNC(N)=S)c2cccc(N)c12
IC50: inactive

O=C(COC(=O)c1ccc([N+](=O)[O-])s1)Nc1ncc(C(F)(F)F)cc1Cl
IC50: inactive

COCCN1C=C2C(=O)C(C)(OC(=O)C3CCCC3)C(=O)C(c3ccccc3)=C2C=C1CCCC(=O)OC (centres undefined)
IC50: inactive

CC(=O)[C@@H]1[C@@H]2C(=O)N(c3ccc(F)c(Cl)c3)C(=O)[C@@H]2C2c3ccccc3C=CN21 (some centres undefined)
IC50: inactive

CN(C)c1ccc2nc3ccc(=O)cc-3sc2c1
IC50: > 115 µM (inactive)

C[n+]1c(-c2ccccc2)cc2c(=Cc3ccc([N+](=O)[O-])cc3)c3ccccc3n21
IC50: 4.14 µM

Cc1cnc(C2OCCO2)c2cccc(N)c12
IC50: 5.37 µM

Cc1cc2c(cc1C)C(=O)C(Br)=C(N)C2=O
IC50: inactive

CCOc1ccc(NC(=S)Nc2ccc3nsnc3c2)cc1
IC50: inactive

Clc1ccc(C2=CSC3=Nc4cccc5cccc(c45)N23)cc1
IC50: inactive

CCC(C)n1c(NC(=O)c2ccccc2)c(C#N)c2nc3ccccc3nc21 (centres undefined)
IC50: > 12.7 µM (inactive)

COc1cc2c(cc1OC)-c1c(OC)c(OC)cc3c1[C@H](C2)N(C)CC3
IC50: > 12.7 µM (inactive)

Cc1coc2c(O)cc3c(c12)OC1(N2CCCCC2)C(=O)NCCCC31 (centres undefined)
IC50: inactive

O=[N+]([O-])c1cc(O)c2ncccc2c1
IC50: inactive

CC1(C)C=C2C(=NN(c3ccccc3)C(N)=C2C#N)CO1
IC50: inactive

COC1=C(N)C(=O)c2nc(C)ccc2C1=O
IC50: 4.98 µM

CN(C)CCCNc1cc(O)c2ncccc2c1
IC50: inactive

Cc1c(C=O)c(Cl)n(C)c(=O)c1C#N
IC50: inactive

O=C(OCc1nnc(-c2ccccc2)o1)c1ccc([N+](=O)[O-])s1
IC50: inactive

NS(=O)(=O)c1ccc(NC(=O)COC(=O)c2ccc([N+](=O)[O-])s2)cc1
IC50: inactive

COc1cc(C=c2c3ccccc3n3c2cc(-c2ccccc2)[n+]3C)cc(OC)c1OC
IC50: 5.77 µM

Cc1cc(C)c(S(=O)(=O)/N=C2\C=C(Nc3ccc(C(=O)O)cc3)C(=O)c3ccccc32)c(C)c1
IC50: 4.54 µM

CCCCn1c(NS(=O)(=O)c2ccccc2)c(C(=O)OCC)c2nc3ccccc3nc21
IC50: > 115 µM (inactive)

O=S(=O)(Nc1cc2nc3ccccc3nc2n1Cc1ccccc1)c1ccc(Cl)cc1
IC50: 7.6 µM

COc1cc2c(cc1OC)-c1c(OC)c(OC)cc3c1C(C2)N(C)CC3 (centres undefined)
IC50: > 115 µM (inactive)

CCOC(=O)C1=C(COC(=O)c2ccc([N+](=O)[O-])s2)NC(=O)NC1C (centres undefined)
IC50: inactive

O=C(N/N=C1\C/C(=N\NC(=O)c2ccncc2)c2ccccc21)c1ccncc1
IC50: 1.81 µM

CCOCCCNC1=C(Cl)C(=O)c2ccccc2C1=O
IC50: inactive

CCn1nc(/C=C/c2ccccc2)nc2c(=O)n(C)c(=O)nc1-2
IC50: 0.487 µM

O=C(O)c1ccc(NC2=C/C(=N/S(=O)(=O)c3cccs3)c3ccccc3C2=O)cc1
IC50: 1.4 µM

COc1ccc(CNC(=O)c2c(C)oc3c2C(=O)c2ccccc2C3=O)cc1
IC50: inactive

CC(=O)Nc1ccc(S(=O)(=O)NC2=C(N3CCN(c4ccc(F)cc4)CC3)C(=O)c3ccccc3C2=O)cc1
IC50: inactive

Cc1ccc2c(c1C)-c1c(ccc(C)c1C)C(=O)C2=O
IC50: inactive

CCOC(=O)c1c(C)[nH]c2c1-c1ccccc1C(=O)C2=O
IC50: 0.662 µM

CC(=O)NC1=C(N(C)C2CCS(=O)(=O)C2)C(=O)c2ccccc2C1=O (centres undefined)
IC50: inactive

CN(C1=C(NC(=O)c2ccccc2)C(=O)c2ccccc2C1=O)C1CCS(=O)(=O)C1 (centres undefined)
IC50: 9.59 µM

O=C1Cc2ccccc2C(=O)N1CCc1ccccc1
IC50: 1.51 µM

O=C(c1ccccc1)c1coc2c1C(=O)c1ccccc1C2=O
IC50: inactive

COc1ccccc1NC(=O)COC(=O)c1ccc([N+](=O)[O-])s1
IC50: inactive

Cc1ccc(S(=O)(=O)/N=C2\C=C(Nc3cccc(C(=O)O)c3)C(=O)c3ccccc32)c(C)c1
IC50: 2.36 µM

CN(C)c1cccc2c1c(NS(=O)(=O)c1cn(C)cn1)nn2C
IC50: inactive

COc1cc(NC(C)CCCN)c2ncccc2c1 (centres undefined)
IC50: inactive

Cn1nc(-c2ccccn2)nc2c(=O)n(C)c(=O)nc1-2
IC50: 1.16 µM

CCCCn1c(NS(=O)(=O)c2ccccc2)c(S(=O)(=O)c2ccc(C)cc2)c2nc3ccccc3nc21
IC50: > 115 µM (inactive)

CC(=O)N(C1=C(N)C(=O)c2ccccc2C1=O)c1ccccc1
IC50: inactive

Cc1oc2c(c1C(=O)O)C(=O)c1ccccc1C2=O
IC50: inactive

Cn1c(=O)c2c(-c3ccccc3)n(-c3ccc(N)cc3)cc2n(C)c1=O
IC50: inactive

COc1ccccc1Nc1cc2cc(Br)ccc2c(=O)[nH]1
IC50: 1.36 µM

CCOC(=O)c1cc2c(ccn2C)n1Cc1ccccc1C
IC50: inactive

Oc1ccccc1CNc1cccc2cccnc12
IC50: inactive

C[n+]1c(-c2ccccc2)cc2c(=Cc3ccccc3)c3ccccc3n21
IC50: 3.65 µM

O=C(NC1=C(NC2CCS(=O)(=O)C2)C(=O)c2ccccc2C1=O)c1ccccc1 (centres undefined)
IC50: inactive

CC(=O)N(/N=C1\Sc2ccccc2C1=O)c1cccc(C)c1
IC50: inactive

Nc1ccc(N2CCCCC2)c2nonc12
IC50: inactive

Cc1ccc(NC2=CC(=O)C(=O)c3ccccc32)cc1
IC50: inactive

CCC(COC)Oc1cc(NCc2ccccc2)c2ncn(C(C)C)c2c1 (centres undefined)
IC50: inactive

COc1cc(NCCCC(C)N)c2ncccc2c1 (centres undefined)
IC50: 4.6 µM

CC(C)N(C(=O)Nc1ccc2nsnc2c1)C(C)C
IC50: > 115 µM (inactive)

CC(=O)c1ccc(NC(=S)Nc2cccc3cnccc23)cc1
IC50: 7.69 µM

O=C1C=C(N2CCOCC2)c2ccccc2C1=O
IC50: inactive

CCCCCCCCCCOC(=O)Cn1c(COc2ccc(Cl)cc2)[n+](C)c2ccccc21
IC50: 6.42 µM

Cc1ccc(Cl)cc1NC1=C/C(=N\S(=O)(=O)c2cccs2)c2ccccc2C1=O
IC50: 2.37 µM

COc1ccc(C(C[N+](=O)[O-])c2c(C)[nH]n(-c3ccccc3)c2=O)cc1 (centres undefined)
IC50: > 115 µM (inactive)

O=C1C=C(O)c2[nH]c(=O)ccc2C1=O
IC50: inactive

Cn1c2ccccc2c2cc(/C=N/NC(=O)c3cc(O)ccc3O)ccc21
IC50: inactive
